Biological target: human σ2 receptor (TMEM97) (Homo sapiens, UniProt Q5BJF2)
Experiment: biochemical
Format: Expi293 membranes
Details: read-out: % of control remaining

human σ2 receptor (TMEM97), sequence (Q5BJF2 whole entry): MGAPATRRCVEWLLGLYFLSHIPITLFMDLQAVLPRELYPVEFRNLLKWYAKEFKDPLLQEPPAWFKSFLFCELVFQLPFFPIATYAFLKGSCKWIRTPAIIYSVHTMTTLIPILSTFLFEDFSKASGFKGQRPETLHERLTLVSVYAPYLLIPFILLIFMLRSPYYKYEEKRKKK

| Structure (SMILES) | remaining activity at 1 µM [%] |
| --- | --- |
| Cc1cc(CN2CC[C@H]2Cc2ccccc2)ccc1-n1cncn1 [ZINC000353995714] | 13.2 |
| CN1CC[C@](O)(CNC(=O)c2cc3cc([N+](=O)[O-])ccc3s2)C1 [ZINC000358051108] | 102 |
| CN1CC[C@](O)(CNC(=O)c2ccc([N+](=O)[O-])c3cccnc23)C1 [ZINC000358062278] | 102 |
| Cc1ccc([C@H](NC[C@@]2(O)CCN(C)C2)c2ccccc2)cc1 [ZINC000358253868] | 52.1 |
| CC(C)N1C[C@H](NC(=O)c2ccn(Cc3ccccc3)c2)[C@@H](C)C1 [ZINC000359009035] | 99.8 |
| Cc1ccccc1Cc1nnc(CN2C[C@@H](N3CCCC3)C[C@H]2C)o1 [ZINC000367601434] | 90.8 |
| CN1CCO[C@@H](CN(Cc2cnc(-c3cnn(C)c3)nc2)CC2CC2)C1 [ZINC000369129048] | 120 |
| N#CC1(c2ccccn2)CCN([C@@H]2Cc3ccccc3[C@@H]2O)CC1 [ZINC000369205980] | 112 |
| Cc1cc(C)cc(NC(=O)[C@H](C)N2CC[C@@H](C3CCOCC3)C2)c1 [ZINC000374368469] | 5.8 |
| C[C@@H](CO)N1CCCN([C@@H](C)C(=O)Nc2cccc(Cl)c2Cl)CC1 [ZINC000375486080] | 48.7 |
| CC[C@H](c1ccccc1)N1CCC(C#N)(c2ccccn2)CC1 [ZINC000376738332] | 84 |
| COc1ccc2cc(CN[C@](C)(CO)C(C)C)ccc2c1 [ZINC000398583627] | 14.6 |
| CCc1cc(NC(=O)[C@@H]2CC[C@H](C3CC3)N2)ccc1C [ZINC000407281203] | 80.8 |
| O=C(c1cncc(N2CCOCC2)c1)N1CCN2C(=O)NC[C@@H]2C1 [ZINC000408001865] | 110 |
| CN(Cc1cc(F)cc(F)c1)C(=O)C(=O)N1CC[C@H](N2CC=CC2)C1 [ZINC000410783840] | 103 |
| O=C(NC[C@H]1CCCN1)Nc1cc(F)cc(F)c1Br [ZINC000415549177] | 73.8 |
| Cc1cc([N+](=O)[O-])cc(C)c1S(=O)(=O)NC[C@H]1CCN(C)C1 [ZINC000416493836] | 72.3 |
| CC(C)(C(=O)N[C@@H]1CCCc2cc(N)ccc21)[C@H](N)c1ccccc1 [ZINC000417806012] | 96.2 |
| COc1ccc(Oc2ccc([N+](=O)[O-])cc2C(=O)N(C)C[C@H]2CCCN2C)cc1 [ZINC000421699823] | 96.4 |
| CC(C)CSc1ccc([N+](=O)[O-])cc1C(=O)N(C)C[C@H]1CCCN1C [ZINC000421710394] | 94.6 |
| CC(C)Sc1ccc([N+](=O)[O-])cc1C(=O)N(C)C[C@H]1CCCN1C [ZINC000421710406] | 81.8 |
| C[C@H](c1ccccc1Br)N(C)C(=O)C[C@@H]1CCCN1 [ZINC000423867812] | 95.6 |
| O[C@H](COC(c1ccccc1)c1ccccc1)CN1CC[C@@H]2CCC[C@H]21 [ZINC000426471156] | 36.3 |
| O[C@@H](CN[C@@H](Cc1ccccc1F)c1ccccc1)CN1CCCC1 [ZINC000429522320] | 60.1 |
| CCCN1C(=O)N(CC(C)(C)N2CCc3ccccc3C2)C(=O)[C@H]1CC [ZINC000430847713] | 67.3 |
| CCc1ccc([C@@H]2CCN(Cc3cc(=O)n4c(C)cccc4n3)C2)cc1 [ZINC000433044150] | 5 |
| CN(C(=O)CN1CCC(c2cnc[nH]2)CC1)C(c1ccccc1)c1ccccc1 [ZINC000435004139] | 99.6 |
| CC(C)N1C[C@H](NC(=O)N[C@@H](C)c2ccc(Br)s2)[C@@H](C)C1 [ZINC000436303801] | 75.3 |

Second part, the compound after the results:

| remaining activity at 1 µM [%] | Structure (SMILES) |
| --- | --- |
| 142 | C[C@@H]1CCN2C(=O)N(CCCN3CCC[C@@H](C(N)=O)C3)C(=O)[C@H]2C1 [ZINC000349353698] |
| 43 | N#Cc1ccc(N2CCN(C[C@H](O)CC3CCCC3)CC2)c(F)c1 [ZINC000352856249] |
| 113 | CCc1ccnc(CNC(=O)C(=O)N[C@@H]2C[C@H](C)N(C3CC3)C2)c1 [ZINC000358071102] |
| 76.4 | Cc1nc2n(n1)CCN(C(=O)C(=O)N[C@@H]1CCO[C@@H](CC(C)C)C1)C2 [ZINC000361132106] |
| 27.8 | CCO[C@@H](CC(=O)N1CCCN(C2CCCC2)CC1)C1=CCCC1 [ZINC000362611503] |
| 88.9 | CC(C)N1CCN([C@H]2CCN(C(=O)CC3(O)CCCCC3)C2)CC1 [ZINC000363920872] |
| 110 | CN1CC[C@]2(CCN(C(=O)CN3C(=O)NC4(CCCC4)C3=O)C2)C1 [ZINC000366544782] |
| 82.1 | O=C1CCCCN1[C@@H]1CCCN(Cc2cc(-c3ccccc3)no2)C1 [ZINC000370893072] |
| 98.9 | CN1CCC(C(=O)N2CCC[C@@H](c3nc4ccc(F)cc4o3)C2)CC1 [ZINC000370933962] |
| 100 | CS[C@H](CO)[C@@H](C)NC(=O)N[C@@H]1CCN(C2CCN(C)CC2)C1 [ZINC000377772869] |
| 95.3 | NC(=O)c1ccccc1N1CC[C@H](NC(=O)CC2CCNCC2)C1 [ZINC000378210510] |
| 54.1 | C[C@H](N[C@@H]1CCCc2c1[nH]c1ccccc21)[C@H]1CCCOC1 [ZINC000389015736] |
| 120 | O=C(NC1CC1)C(=O)N1CCN(S(=O)(=O)C[C@@H]2CCCO2)CC1 [ZINC000407973885] |
| 88.6 | C[C@H](C(=O)NCc1ccc(F)cc1)N1C[C@H]2C[C@@H](O)CC[C@H]2C1 [ZINC000412048402] |
| 62.9 | CC1CCN(C[C@H](O)CNc2nccc3ccc([N+](=O)[O-])cc23)CC1 [ZINC000413145325] |
| 127 | C[C@H](N)[C@@H]1CCCCN1C(=O)NCc1cn2ccccc2n1 [ZINC000416873685] |
| 64.9 | Cc1cccc(C)c1OC[C@H](C)NC(=O)C(=O)NC[C@@H]1CCCNC1 [ZINC000418924570] |
| 82.5 | CN(Cc1ccccc1)C(=O)CNC(=O)C(=O)N[C@H]1CCCNC1 [ZINC000419445843] |
| 95.7 | CC[C@H]1CN(C(=O)C(=O)NCCCN2CCNCC2)CCS1 [ZINC000419873354] |
| 94.1 | NC[C@@H](NC(=O)C(=O)NCCN1CCSCC1)C1CCCC1 [ZINC000420063417] |
| 77.9 | CC(C)Sc1c(Cl)cccc1NC(=O)C(=O)N(C)C[C@H]1CCCN1C [ZINC000421295130] |
| 76.1 | CCC[C@@H](C(=O)N(C)C[C@H]1CCCN1C)c1ccccc1 [ZINC000421701270] |
| 129 | COC(=O)[C@@]1(C)CCCN(C(=O)C(=O)N[C@@H](C)Cc2ccncc2)C1 [ZINC000422349618] |
| 92 | O=C(CN1CC[C@@H]2CCC[C@@H]21)Nc1cccc(I)c1 [ZINC000426526480] |
| 7.5 | O=C(C[C@@H]1CCCN1CCOc1cccc([N+](=O)[O-])c1)c1cccs1 [ZINC000430988927] |
| 38.1 | C[C@@H]1CCC[C@@H](NC(=O)CN2CCN(CC[C@@H]3CCOC3)CC2)C1 [ZINC000438095302] |
| 105 | Cc1c(C(=O)NCC2CCCC2)cnc2c1c(=O)n(C)c(=O)n2C [ZINC000438905691] |

Reference: paper doi:10.1101/2021.04.29.441652v1 (biorxiv, 2021)
